Laboratory results: patent US12377077B2, “Methods and formulations to treat mitochondrial dysfunction” (The Board of Trustees of the Leland Stanford Junior …, priority 2018, dated 2025)

System: pAMPK
Experiment: pAMPK western blot after siRNA knockdown of PRKAA1 in COX10 deficient fibroblasts
Assay type: cell-based, human
Details: siAMPK+PT1 compared to siCNT+PT1
Experimental: Methods: Western blotting was performed to identify pAMPK levels in cells treated with PT1. Cells were lysed with RIPA buffer supplemented with Na-Orthovanadate, PMSF, and Protease Inhibitor cocktail. Whole cell extracts were fractionated by SDS-PAGE and transferred to a polyvinylidene difluoride membrane using a transfer apparatus according to the manufacturer's protocols (Bio-Rad). After incubation with 5% nonfat milk in TBST (10 mM Tris, pH 8.0, 150 mM NaCl, 0.5% Tween 20) for 60 min, the membrane was washed once with TBST and incubated with antibodies against AMPK (1:1,000), pAMPK (1:1,000), actin (1:10,000) at 4° C. overnight. […]
To test whether the cellular response to PT1 is a result of AMPK activation itself, or is merely a result of nonspecific interactions, an siRNA knockdown strategy was used. siRNA for PRKAA1 (s101) and a negative control (Life Technologies) were incubated with Hiperfect reagent (Qiagen) in media containing DMEM, 1% Penicillin-Streptomycin (10,000 U/mL) (Life Technologies), 1% glutaMAX (Life Technologies) but no serum and allowed to complex for 10 min at room temperature. […] At the end of the incubation period, the cells were analyzed for levels of AMPK and pAMPK by western blot analysis (see protocol above) or incubated for six additional days with PT1 (or DMSO as untreated control) and assessed for viability by Calcein AM. […]

## Cc1cc(-c2ccc(C=C3SC(=S)N(c4ccc(Cl)c(C(=O)O)c4)C3=O)o2)c([N+](=O)[O-])cc1C [PT1]
  decrease in pAMPK levels: 63%
